Laboratory results as given in patent US20090074886A1, “GSK-3 INHIBITORS” (Novartis Vaccines and Diagnostics Inc., priority 2003, published 2009).

Experiments:
[1] = tested on: 3T3-L1 preadipocyes; settings: cited from earlier work
[2] = tested on: ST2 cells; assay: Osteogenesis of multipotential ST2 cells, Alizarin Red-S staining for mineralization; assay type: cell-based; settings: 3 μM on days 0 and 2 vs DMSO control; Alizarin Red-S stain on day 10; FIG. 1B
Description: FIG. 1B. Multipotential ST2 cells were induced to undergo osteogenesis as described (Hankenson and Bornstein 2002). On days 0 and 2, cells were treated with DMSO (control) or 3 μM CHIR99021 6-[(2-{[4-(2,4-dichlorophenyl)-5-(4-methylimidazol-2-yl)pyrimidin-2-yl]amino}ethyl)amino]pyridine-3-carbonitrile (Chiron Corporation, Emeryville, Calif.). On day 10, cells were stained with Alizarin Red-S for mineralization.

SMILES: Cc1c[nH]c(-c2cnc(NCCNc3ccc(C#N)cn3)nc2-c2ccc(Cl)cc2Cl)n1 [CHIR99021, 6-[(2-{[4-(2,4-dichlorophenyl)-5-(4-methylimidazol-2-yl)pyrimidin-2-yl]amino}ethyl)amino]pyridine-3-carbonitrile]
- Wnt signaling in vitro [1]: mimic Wnt signaling
- adipocyte conversion ([1]; in vitro): blocking adipocyte conversion
- osteoblastogenesis and mineralization of bipotential ST2 cells [2]: increases osteoblastogenesis and mineralization
